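Cells were grown in 96-well plates and exposed to each compound for 48 hours at five concentrations; endpoints were interpolated linearly between bracketing concentrations, or set to the highest concentration if not reached. TGI marks complete inhibition of growth.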
Key:
Test in all cases: inhibition of tumour cell growth, NCI panel, 48 h
SK-MEL-28 melanoma = system: SK-MEL-28 melanoma
SN12C renal = system: SN12C renal
SF-295 CNS = system: SF-295 CNS
SW-620 colon = system: SW-620 colon
HT29 colon = system: HT29 colon
HOP-62 NSCLC = system: HOP-62 NSCLC
NCI/ADR-RES ovarian = system: NCI/ADR-RES ovarian
SR leukemia = system: SR leukemia
MDA-N = system: MDA-N
HCT-116 colon = system: HCT-116 colon
OVCAR-3 ovarian = system: OVCAR-3 ovarian
A549 NSCLC = system: A549 NSCLC
EKVX NSCLC = system: EKVX NSCLC
SNB-19 CNS = system: SNB-19 CNS
SF-268 CNS = system: SF-268 CNS
PC-3 prostate = system: PC-3 prostate
SK-OV-3 ovarian = system: SK-OV-3 ovarian
DU-145 prostate = system: DU-145 prostate
UO-31 renal = system: UO-31 renal
NCI-H522 lung = system: NCI-H522 lung
CAKI-1 renal = system: CAKI-1 renal
NCI-H226 lung = system: NCI-H226 lung
LOX IMVI melanoma = system: LOX IMVI melanoma
U251 CNS = system: U251 CNS
OVCAR-4 ovarian = system: OVCAR-4 ovarian
HOP-92 NSCLC = system: HOP-92 NSCLC
ACHN renal = system: ACHN renal
SNB-75 CNS = system: SNB-75 CNS
SF-539 CNS = system: SF-539 CNS
RXF 393 renal = system: RXF 393 renal
MOLT-4 leukemia = system: MOLT-4 leukemia
TK-10 renal = system: TK-10 renal
A498 renal = system: A498 renal
UACC-62 melanoma = system: UACC-62 melanoma
RPMI-8226 leukemia = system: RPMI-8226 leukemia
NCI-H23 lung = system: NCI-H23 lung
786-0 renal = system: 786-0 renal
IGROV1 ovarian = system: IGROV1 ovarian
COLO 205 colon = system: COLO 205 colon
HL-60(TB) leukemia = system: HL-60(TB) leukemia
HCC-2998 colon = system: HCC-2998 colon
MALME-3M melanoma = system: MALME-3M melanoma
MCF7 breast = system: MCF7 breast
HS 578T breast = system: HS 578T breast
SK-MEL-5 melanoma = system: SK-MEL-5 melanoma
KM12 colon = system: KM12 colon
HCT-15 colon = system: HCT-15 colon
M14 melanoma = system: M14 melanoma
OVCAR-8 ovarian = system: OVCAR-8 ovarian
OVCAR-5 ovarian = system: OVCAR-5 ovarian
MDA-MB-435 = system: MDA-MB-435
NCI-H460 lung = system: NCI-H460 lung
MDA-MB-231 breast = system: MDA-MB-231 breast
BT-549 breast = system: BT-549 breast
K-562 leukemia = system: K-562 leukemia
UACC-257 melanoma = system: UACC-257 melanoma
T-47D breast = system: T-47D breast
SK-MEL-2 melanoma = system: SK-MEL-2 melanoma

`CC(C)(C)OC(=O)NC(Cc1ccc([N+](=O)[O-])cc1)C(=O)NC(CCCCNC(=O)OCc1ccccc1)C(=O)ON1C(=O)CCC1=O` (centres undefined) gave a TGI (SK-MEL-28 melanoma) of over 100 µM, a TGI (SN12C renal) of over 100 µM and a TGI (SF-295 CNS) of over 100 µM. The TGI (SW-620 colon) was over 100 µM, the TGI (HT29 colon) was over 100 µM and the TGI (HOP-62 NSCLC) was over 100 µM. For the same compound, the TGI (NCI/ADR-RES ovarian) was over 100 µM, the TGI (SR leukemia) was over 100 µM and the TGI (MDA-N) was over 100 µM. It also gave a TGI (HCT-116 colon) of over 100 µM, a TGI (OVCAR-3 ovarian) of over 100 µM and a TGI (A549 NSCLC) of over 100 µM. The TGI (EKVX NSCLC) was over 100 µM, the TGI (SNB-19 CNS) was over 100 µM and the TGI (SF-268 CNS) was over 100 µM. The TGI (PC-3 prostate) was over 100 µM, the TGI (SK-OV-3 ovarian) was over 100 µM and the TGI (DU-145 prostate) was over 100 µM. For the same compound, the TGI (UO-31 renal) was over 100 µM, the TGI (NCI-H522 lung) was over 100 µM and the TGI (CAKI-1 renal) was over 100 µM. The TGI (NCI-H226 lung) was over 100 µM, the TGI (LOX IMVI melanoma) was over 100 µM and the TGI (U251 CNS) was over 100 µM. It also gave a TGI (OVCAR-4 ovarian) of over 100 µM, a TGI (HOP-92 NSCLC) of over 100 µM and a TGI (ACHN renal) of over 100 µM. For the same compound, the TGI (SNB-75 CNS) was over 100 µM, the TGI (SF-539 CNS) was over 100 µM and the TGI (RXF 393 renal) was over 100 µM. For the same compound, the TGI (MOLT-4 leukemia) was over 100 µM, the TGI (TK-10 renal) was over 100 µM and the TGI (A498 renal) was over 100 µM. The TGI (UACC-62 melanoma) was over 100 µM, the TGI (RPMI-8226 leukemia) was over 100 µM and the TGI (NCI-H23 lung) was over 100 µM. It also gave a TGI (786-0 renal) of over 100 µM, a TGI (IGROV1 ovarian) of over 100 µM and a TGI (COLO 205 colon) of over 100 µM. The TGI (HL-60(TB) leukemia) was over 100 µM, the TGI (HCC-2998 colon) was 79.4 µM and the TGI (MALME-3M melanoma) was over 100 µM. For the same compound, the TGI (MCF7 breast) was over 100 µM, the TGI (HS 578T breast) was over 100 µM and the TGI (SK-MEL-5 melanoma) was over 100 µM. For the same compound, the TGI (KM12 colon) was over 100 µM, the TGI (HCT-15 colon) was over 100 µM and the TGI (M14 melanoma) was over 100 µM. It also gave a TGI (OVCAR-8 ovarian) of over 100 µM, a TGI (OVCAR-5 ovarian) of over 100 µM and a TGI (MDA-MB-435) of over 100 µM. It also gave a TGI (NCI-H460 lung) of over 100 µM, a TGI (MDA-MB-231 breast) of over 100 µM and a TGI (BT-549 breast) of over 100 µM. For the same compound, the TGI (K-562 leukemia) was 73.1 µM.

`CC1OC(O)C(O)C(O)C1O` (centres undefined) gave a TGI (SK-MEL-28 melanoma) of over 100 µM, a TGI (SN12C renal) of over 100 µM and a TGI (SF-295 CNS) of over 100 µM. It also gave a TGI (SW-620 colon) of over 100 µM, a TGI (HT29 colon) of over 100 µM and a TGI (HOP-62 NSCLC) of over 100 µM. For the same compound, the TGI (NCI/ADR-RES ovarian) was over 100 µM, the TGI (MDA-N) was over 100 µM and the TGI (HCT-116 colon) was over 100 µM. The TGI (OVCAR-3 ovarian) was over 100 µM, the TGI (A549 NSCLC) was over 100 µM and the TGI (EKVX NSCLC) was over 100 µM. For the same compound, the TGI (SNB-19 CNS) was over 100 µM, the TGI (SF-268 CNS) was over 100 µM and the TGI (PC-3 prostate) was over 100 µM. It also gave a TGI (UACC-257 melanoma) of over 100 µM, a TGI (SK-OV-3 ovarian) of over 100 µM and a TGI (DU-145 prostate) of over 100 µM. The TGI (UO-31 renal) was over 100 µM, the TGI (NCI-H522 lung) was over 100 µM and the TGI (CAKI-1 renal) was over 100 µM. It also gave a TGI (NCI-H226 lung) of over 100 µM, a TGI (LOX IMVI melanoma) of over 100 µM and a TGI (U251 CNS) of over 100 µM. For the same compound, the TGI (OVCAR-4 ovarian) was over 100 µM, the TGI (HOP-92 NSCLC) was over 100 µM and the TGI (ACHN renal) was over 100 µM. It also gave a TGI (T-47D breast) of over 100 µM, a TGI (SK-MEL-2 melanoma) of over 100 µM and a TGI (SNB-75 CNS) of over 100 µM. It also gave a TGI (SF-539 CNS) of over 100 µM, a TGI (RXF 393 renal) of over 100 µM and a TGI (TK-10 renal) of over 100 µM. The TGI (A498 renal) was over 100 µM, the TGI (UACC-62 melanoma) was over 100 µM and the TGI (RPMI-8226 leukemia) was over 100 µM. For the same compound, the TGI (NCI-H23 lung) was over 100 µM, the TGI (786-0 renal) was over 100 µM and the TGI (IGROV1 ovarian) was over 100 µM. For the same compound, the TGI (COLO 205 colon) was over 100 µM, the TGI (MALME-3M melanoma) was over 100 µM and the TGI (MCF7 breast) was over 100 µM. The TGI (HS 578T breast) was over 100 µM, the TGI (SK-MEL-5 melanoma) was over 100 µM and the TGI (KM12 colon) was over 100 µM. The TGI (HCT-15 colon) was over 100 µM, the TGI (M14 melanoma) was over 100 µM and the TGI (OVCAR-8 ovarian) was over 100 µM. For the same compound, the TGI (OVCAR-5 ovarian) was over 100 µM, the TGI (MDA-MB-435) was over 100 µM and the TGI (NCI-H460 lung) was over 100 µM. For the same compound, the TGI (MDA-MB-231 breast) was over 100 µM, the TGI (BT-549 breast) was over 100 µM and the TGI (K-562 leukemia) was over 100 µM.
